Data published in patent US9890175B2, “Taxane compound, and preparation method and use thereof” (JIANGSU TASLY DIYI PHARMACEUTICAL CO., LTD., priority 2013, dated 2018).
Read-outs that look alike come from different tables or passages of the source.

What was measured:
[1] = reported value; cited from earlier work
Caco-2 cell monolayer [2] = conditions: human
Description: (§3) Human-derived colorectal adenocarcinoma cell line Caco-2 cell monolayer model was used to study the bidirectional transport of the target compounds from the apical (AP) side to the basolateral (BL) side and from BL side to AP side. HPLC was used for quantitative analysis to calculate transport parameters, apparent permeability coefficient (Papp) and the efflux ratio.

[3] = tested on: breast cancer cell line MCF-7; assay: IC50 on breast cancer cell line MCF-7; format: cell-based; conditions: Homo sapiens
[4] = Caco-2 cell monolayer membrane transport assay (Papp and recovery); format: in vitro ADME; conditions: human
Description: Caco-2 Cell Monolayer Membrane Transport Assay
as §3

K562 leukemia = assay: MTT proliferation inhibition, K562; format: cell-based; conditions: Homo sapiens, K562, read-out: Proliferation inhibition rate, K562 Leukemia
Description: (§1) 1. Cytotoxicity Assay Using Human Tumor Cell Lines
(§2) Paclitaxel was used as the positive drug.

[5] = tested on: NCI-H460 non-small cell lung cancer; assay: MTT proliferation inhibition, NCI-H460; format: cell-based; conditions: Homo sapiens, NCI-H460, read-out: Proliferation inhibition rate, NCI-H460 Non-small cell lung cancer
Description: as §1, §2

[6] = tested on: MCF-7 breast cancer cells; assay: MTT proliferation inhibition, MCF-7; format: cell-based; conditions: Homo sapiens, MCF7, read-out: Proliferation inhibition rate, MCF-7 Breast cancer
Description: as §1, §2

HCT 116 colon cancer = assay: MTT proliferation inhibition, HCT 116; format: cell-based; conditions: Homo sapiens, HCT-116, read-out: Proliferation inhibition rate, HCT 116 Colon cancer
Description: as §1, §2

Du145 prostate cancer = assay: MTT proliferation inhibition, Du145; format: cell-based; conditions: Homo sapiens, DU-145, read-out: Proliferation inhibition rate, DU145 Prostate cancer
Description: as §1, §2

B16 melanoma = assay: MTT proliferation inhibition, B16; format: cell-based; conditions: B16, read-out: Proliferation inhibition rate, B16 Melanoma
Description: as §1, §2

LNCaP prostate cancer = assay: MTT proliferation inhibition, LNCaP; format: cell-based; conditions: Homo sapiens, read-out: Proliferation inhibition rate, LNCaP Prostate cancer
Description: as §1, §2

BGC-823 gastric cancer = assay: MTT proliferation inhibition, BGC-823; format: cell-based; conditions: Homo sapiens, BGC-823, read-out: Proliferation inhibition rate, BGC-823 Gastric cancer
Description: as §1, §2

Hela cervical cancer = assay: MTT proliferation inhibition, HeLa; format: cell-based; conditions: Homo sapiens, read-out: Proliferation inhibition rate, HeLa Uterin cancer
Description: as §1, §2

HT-29 colon cancer = assay: MTT proliferation inhibition, HT-29; format: cell-based; conditions: Homo sapiens, HT-29, read-out: Proliferation inhibition rate, HT29 Colon cancer
Description: as §1, §2

Caco-2 cell monolayer [7] = assay: Caco-2 bidirectional transport, efflux ratio; conditions: Caco-2 cell line (21 days); for efflux ratio: Papp B-A/Papp A-B
Description: as §3

LN-18 = assay: MTT proliferation inhibition, LN-18; format: cell-based; conditions: Homo sapiens, LN-18, read-out: Proliferation inhibition rate, LN-18 Gastric canser
Description: as §1, §2

[8] = tested on: A549 non-small cell lung cancer; assay: MTT proliferation inhibition, A549; format: cell-based; conditions: Homo sapiens, A549, read-out: Proliferation inhibition rate, A549 Non-small cell lung cancer
Description: as §1, §2

A2780 ovarian cancer = assay: MTT proliferation inhibition, A2780; format: cell-based; conditions: Homo sapiens, A2780, read-out: Proliferation inhibition rate, A2780 Ovarian cancer
Description: as §1, §2

HL-60 leukemia = assay: MTT proliferation inhibition, HL-60; format: cell-based; conditions: Homo sapiens, HL-60, read-out: Proliferation inhibition rate, HL60 Leukemia
Description: as §1, §2

A375 melanoma = assay: MTT proliferation inhibition, A375; format: cell-based; conditions: Homo sapiens, A-375, read-out: Proliferation inhibition rate, A375 Melanoma
Description: as §1, §2

[9] = tested on: MDA-MB-436 breast cancer cells; assay: MTT proliferation inhibition, MDA-MB-436; format: cell-based; conditions: Homo sapiens, MDA-MB-436, read-out: Proliferation inhibition rate, MDA-MB-436 Breast cancer
Description: as §1, §2

[10] = Caco-2 bidirectional transport, efflux ratio; conditions: human, Caco-2
Description: as §3

[11] = MCF7, 72 h, read-out: MCF-7 (IC50, nM)
[12] = Caco-2, Caco-2, A-B, Mean, read-out: Papp A-B, Mean
[13] = Caco-2, Caco-2, A-B, Mean, read-out: Recovery rate in mass, Mean
[14] = Caco-2, Caco-2, A-B, Sample-01, read-out: Papp A-B, Sample-01
[15] = Caco-2, Caco-2, A-B, Sample-01, read-out: Recovery rate in mass, Sample-01
[16] = Caco-2, Caco-2, A-B, Sample-02, read-out: Papp A-B, Sample-02
[17] = Caco-2, Caco-2, A-B, Sample-02, read-out: Recovery rate in mass, Sample-02

Row | Compound | inhibition at 1 µM (K562 leukemia) [%] | inhibition at 1 µM [5] [%] | inhibition at 1 µM [6] [%] | inhibition at 1 µM (HCT 116 colon cancer) [%] | inhibition at 1 µM (Du145 prostate cancer) [%] | inhibition at 1 µM (B16 melanoma) [%] | inhibition at 1 µM (LNCaP prostate cancer) [%] | inhibition at 1 µM (BGC-823 gastric cancer) [%] | inhibition at 1 µM (Hela cervical cancer) [%] | IC50 [3, 11] [nM] | inhibition at 1 µM (HT-29 colon cancer) [%] | recovery [4, 13] [%] | Papp A→B [4, 14] [×10⁻⁶ cm/s] | recovery [4, 15] [%] | Papp A→B [4, 16] [×10⁻⁶ cm/s] | recovery [4, 17] [%] | inhibition at 1 µM (LN-18) [%] | inhibition at 1 µM [8] [%] | inhibition at 1 µM (A2780 ovarian cancer) [%] | inhibition at 1 µM (HL-60 leukemia) [%] | other results
1 | CC(=O)O[C@H]1C(=O)[C@@]2(C)[C@H]([C@H](OC(=O)c3ccccc3)[C@]3(O)C[C@H](OC(=O)[C@H](O)[C@@H](NC(=O)c4ccccc4)c4ccccc4)C(C)=C1C3(C)C)[C@]1(OC(C)=O)CO[C@@H]1C[C@@H]2O [Paclitaxel, reference compound] |  |  |  |  |  |  |  |  |  |  |  |  |  |  |  |  |  |  |  |  | reported absolute oral bioavailability [1]: less than 6%; Papp A-B (Caco-2 cell monolayer [2]): 0.97 10^−6 cm/s; Papp B-A (Caco-2 cell monolayer [2]): 33.39 10^−6 cm/s; efflux ratio (Caco-2 cell monolayer [2]): 34.38; IC50 ([3]; MCF7, 72 hours exposure, mean±SD of three experiments, read-out: MCF-7 (IC50)): 7.05 nM; Papp A→B ([4]; Caco-2, Papp A-B, Mean): 0.97 ×10⁻⁶ cm/s; Papp A→B ([4]; Caco-2, Papp A-B, Sample-01): 1.02 ×10⁻⁶ cm/s; Papp A→B ([4]; Caco-2, Papp A-B, Sample-02): 0.93 ×10⁻⁶ cm/s; recovery ([4]; Caco-2, Recovery rate in mass, Mean): 101%; recovery ([4]; Caco-2, Recovery rate in mass, Sample-01): 94.6%; recovery ([4]; Caco-2, Recovery rate in mass, Sample-02): 107%
2 | CO[C@H]1C(=O)[C@]2(C)CC[C@H]3OC[C@@]3(OC(C)=O)[C@H]2[C@H](OC(=O)c2ccccc2)[C@]23OC(=O)O[C@H]2[C@H](OC(=O)[C@H](O)[C@@H](NC(=O)OC(C)(C)C)c2ccccc2)C(C)=C1C3(C)C [PCMI-07] | 94 | 82.7 | 87.1 | 68.8 | 86.8 | 78.6 | 84.9 | 94.1 | 100 | 4.49 ± 0.02 | 86.6 | 50.3 | 3.24 | 54.2 | 2.05 | 46.3 | 96.1 | 74.9 | 95 | 97.5 | Papp A-B (Caco-2 cell monolayer [7]): 2.64 10^−6 cm/s; Papp B-A (Caco-2 cell monolayer [7]): 25.26 10^−6 cm/s; efflux ratio (Caco-2 cell monolayer [7]): 9.56; Papp A→B [4, 12]: 2.64 ×10⁻⁶ cm/s; inhibition at 1 µM (A375 melanoma): 92.5%; inhibition at 1 µM [9]: 80.5%
3 | COC(=O)O[C@H]1C[C@H]2OC[C@@]2(OC(C)=O)[C@H]2[C@H](OC(=O)c3ccccc3)[C@]34OC(=O)O[C@H]3[C@H](OC(=O)[C@H](O)[C@H](CC(C)C)NC(=O)OC(C)(C)C)C(C)=C([C@@H](OC)C(=O)[C@]12C)C4(C)C [PCMI-20] | 93.8 | 86.8 | 85.4 | 68.6 | 88.6 | 81.6 | 86 | 95 | 101 | 2.94 ± 0.04 | 87.2 | 86.5 | 1.08 | 89.8 | 0.75 | 83.3 | 94.3 | 80.4 | 95.5 | 96.9 | Papp B-A (Caco-2 cell monolayer [7]): 7.16 10^−6 cm/s; efflux ratio (Caco-2 cell monolayer [7]): 7.81; Papp A→B [10]: 0.92 ×10⁻⁶ cm/s; Papp A→B [4, 12]: 0.92 ×10⁻⁶ cm/s; inhibition at 1 µM (A375 melanoma): 93.4%; inhibition at 1 µM [9]: 81.1%
4 | CO[C@H]1C(=O)[C@]2(C)[C@@H](OC)C[C@H]3OC[C@@]3(OC(C)=O)[C@H]2[C@H](OC(=O)c2ccccc2)[C@]23OC(=O)O[C@H]2[C@H](OC(=O)[C@H](O)[C@@H](NC(=O)OC(C)(C)C)c2ccccc2)C(C)=C1C3(C)C [PCMI-01] | 92.8 | 87.9 | 96 | 59.7 | 87.8 | 78.1 | 80.7 | 93.1 | 101 | 2.1 ± 0.08 | 89.4 | 54.7 | 4.47 | 48.2 | 3.87 | 61.2 | 92.8 | 66.9 | 96.7 | 96.6 | Papp A-B (Caco-2 cell monolayer [7]): 2.83 10^−6 cm/s; Papp B-A (Caco-2 cell monolayer [7]): 18.20 10^−6 cm/s; efflux ratio (Caco-2 cell monolayer [7]): 6.42; Papp A→B [4, 12]: 4.17 ×10⁻⁶ cm/s; inhibition at 1 µM (A375 melanoma): 90.8%; inhibition at 1 µM [9]: 81.5%
5 | CO[C@H]1C(=O)[C@]2(C)[C@@H](OC)C[C@H]3OC[C@@]3(OC(C)=O)[C@H]2[C@H](OC(=O)c2ccccc2)[C@]23OC(=O)O[C@H]2[C@H](OC(=O)[C@H](O)[C@@H](NC(=O)OC(C)(C)C)c2ccccn2)C(C)=C1C3(C)C [PCMI-04] | 91.5 | 81.8 | 101 | 55 | 83.9 | 73.2 | 79.2 | 89.8 | 98.3 | 3.4 ± 0.14 | 88.3 | 75.9 | 4.46 | 85.2 | 2.86 | 66.5 | 91.8 | 66.3 | 94.7 | 95.8 | Papp A→B [10]: 3.21 ×10⁻⁶ cm/s; Papp B→A [10]: 26.4 ×10⁻⁶ cm/s; efflux ratio [10]: 8.24; inhibition at 1 µM (A375 melanoma): 82.2%; inhibition at 1 µM [9]: 79.4%
